Reference: patent publication US9322895B2, “Method of determining metabolic function using magnetic resonance spectroscopic imaging” (Greater Glasgow Health Board, priority 2009, dated 2016)

Tests used:
[1] = standard temperature and pressure; cited from earlier work
[2] = test system: anaesthetised rats following a middle cerebral artery occlusion (MCAO); experiment: Localised 1H spectroscopy (PRESS) with oxygen challenge in rats following MCAO; type: in vivo; details: rat MCAO
Description: In-vivo MRI experiments were performed on anaesthetised rats following a middle cerebral artery occlusion (MCAO). The measurements included RARE T2 imaging, diffusion weighted imaging (DWI), perfusion weighted imaging (PWI), 1H localised spectroscopy and lactate difference imaging (LDI).
The first experiment used a standard localised spectroscopy sequence (PRESS) to acquire 1H spectra. One voxel was placed in the presumed penumbral region (as indicated by DWI/PWI mismatch), a second voxel was placed in the normal contralateral hemisphere (see FIG. 1)

| SMILES | oxygen carried by 100 ml [1] [mL] | lactate peak in the penumbra on returning to 100% inhaled air ([2]; after the oxygen challenge) | lactate peak in the penumbral region ([2]; challenge of 100% inhaled oxygen, voxel in DWI/PWI mismatch) | lactate peak in the contralateral region ([2]; challenge of 100% inhaled oxygen, voxel in normal contralateral hemisphere) |
| --- | --- | --- | --- | --- |
| FC1(F)C(F)(F)C(F)(F)C2(F)C(F)(F)C(F)(F)C(F)(F)C(F)(F)C2(F)C1(F)F (stereo not shown) [Perflorodecalin] | 49 |  |  |  |
| O=O [oxygen] |  | increased back to previous level | significant decrease | remained unchanged |
